One may read the pIC50 as the negative decadic logarithm of the IC50, by convention in mol/L.

This note sets out measurements from ChEMBL document CHEMBL2331239, “Inhibiting NF-κB-inducing kinase (NIK): discovery, structure-based design, synthesis, structure-activity relationship, and co-crystal structures” (Bioorg Med Chem Lett, 2013).

Molecules are shown by their SMILES. pIC50: −log10 of the molar value.

In test [1] the target is T1, Mitogen-activated protein kinase kinase kinase 14 (Homo sapiens, UniProt Q99558). As to the kind of experiment: Inhibition of NIK (unknown origin) autophosphorylation after 1 hr by chemiluminescent assay.
Test [2] has as its target T1, Mitogen-activated protein kinase kinase kinase 14. As to the kind of experiment: Inhibition of NIK in human HT-29 cells assessed as LTalpha/beta2-induced p100 processing to NFkappaB2 preincubated for 30 mins before LTalpha/beta2 stimulation measured after 5 hrs. Format: cell-based.

T1 sequence (Q99558 whole entry): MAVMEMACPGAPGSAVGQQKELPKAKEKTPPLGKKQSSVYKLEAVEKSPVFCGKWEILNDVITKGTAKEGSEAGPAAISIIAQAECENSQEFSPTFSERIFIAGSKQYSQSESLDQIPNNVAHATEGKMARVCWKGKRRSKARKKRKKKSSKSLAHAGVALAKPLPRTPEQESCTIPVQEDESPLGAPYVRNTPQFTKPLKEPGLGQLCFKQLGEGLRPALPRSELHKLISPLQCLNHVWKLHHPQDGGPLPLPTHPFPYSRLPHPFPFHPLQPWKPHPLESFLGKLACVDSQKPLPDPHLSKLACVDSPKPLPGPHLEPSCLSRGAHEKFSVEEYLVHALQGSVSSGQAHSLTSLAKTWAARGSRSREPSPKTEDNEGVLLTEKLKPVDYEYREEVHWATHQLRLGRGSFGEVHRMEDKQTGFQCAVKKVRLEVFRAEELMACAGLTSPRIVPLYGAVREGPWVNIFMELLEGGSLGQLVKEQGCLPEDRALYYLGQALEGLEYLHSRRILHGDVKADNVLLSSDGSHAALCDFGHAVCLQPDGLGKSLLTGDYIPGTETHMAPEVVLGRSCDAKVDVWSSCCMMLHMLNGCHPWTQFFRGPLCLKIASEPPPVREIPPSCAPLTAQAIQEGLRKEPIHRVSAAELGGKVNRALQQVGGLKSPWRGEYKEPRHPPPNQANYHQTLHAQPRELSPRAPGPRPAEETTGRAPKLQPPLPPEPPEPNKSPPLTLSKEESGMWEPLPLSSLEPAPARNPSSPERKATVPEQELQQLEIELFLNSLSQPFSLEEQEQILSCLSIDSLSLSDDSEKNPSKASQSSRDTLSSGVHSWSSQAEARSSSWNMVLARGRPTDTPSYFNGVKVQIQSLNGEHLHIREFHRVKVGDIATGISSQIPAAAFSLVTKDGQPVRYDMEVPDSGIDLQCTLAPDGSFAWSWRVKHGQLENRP

In test [1], `Cc1nc2ccccn2c1-c1ccnc(N)n1` had a pIC50 of under 4.10.

As to `Cc1ccn2c(-c3ccnc(N)n3)c(C)nc2c1`, the pIC50 in test [1] was under 4.10.

For `Cc1nc2c(C)cccn2c1-c1ccnc(N)n1`, the pIC50 in test [1] was under 4.10.

Turning to `Cc1cnc(N)nc1-c1c[nH]c2ccc(Cl)cc12`, in test [1], the pIC50 is 6.96.

With `Cc1cnc(N)nc1-c1c(C)[nH]c2ccc(Cl)cc12`, the negative logarithm of the IC50 (pIC50) in test [1] is 4.52.

On to `Nc1ncc2c(n1)-c1c([nH]c3ccc(Cl)cc13)CCC2`, for which, in test [1], the pIC50 was 7.15.

Consider `Nc1ncc2c(n1)-c1c[nH]c3ccc(Cl)c(c13)CC2`, for which, in test [1], the pIC50 was 5.59.

In test [1], `Nc1ncc2c(n1)-c1c([nH]c3ccc(Cl)cc13)CC2` had a negative-log IC50 (pIC50) of 5.92.

`Nc1ncc2c(n1)-c1c([nH]c3ccc(Cl)cc13)CCCC2`: the pIC50 in test [1] is 4.68.

Turning to `Nc1ncc2c(n1)-c1c([nH]c3ccc(Br)cc13)CCC2`, the negative logarithm of the IC50 (pIC50) in test [2] is 5.34; in test [1], 7.00.

`Nc1ncc2c(n1)-c1c([nH]c3ccc(C#Cc4cccnc4)cc13)CCC2`: the negative logarithm of the IC50 (pIC50) in test [1] was 4.52.

In test [1], `Cn1cncc1C#Cc1ccc2[nH]c3c(c2c1)-c1nc(N)ncc1CCC3` had a negative logarithm of the IC50 (pIC50) of 4.52.

`CC(O)c1ccc(-c2ccc3[nH]c4c(c3c2)-c2nc(N)ncc2CCC4)cc1` (stereo not drawn): the pIC50 in test [1] is 4.62.

On to `CC(O)c1ccc(-c2ccc3[nH]c4c(c3c2)-c2nc(N)ncc2CCC4)s1` (stereo not drawn), for which, in test [1], the pIC50 was 4.82.

With `COCCOc1cnc(N)nc1-c1c[nH]c2ccc(C#CC(C)(C)O)cc12`, the figures for the pIC50 in test [2] and in test [1] were 7.70 and 7.40, respectively.

Turning to `Cc1nc2ccc(Cl)cn2c1-c1ccnc(N)n1`, the results for the negative-log IC50 (pIC50) in test [2] and in test [1] were 4.80 and 6.22, respectively.

The molecule `Nc1nccc(-c2cnc3ccc(Br)cn23)n1` showed a pIC50 in test [1] of 6.72.

For `Cc1nc2ccc(Cl)cc2n1-c1ccnc(N)n1`, the pIC50 in test [1] was 5.40.

`Nc1nccc(-n2cnc3ccc(Cl)cc32)n1` had a pIC50 in test [1] of 6.51.

`Cc1[nH]c2ccc(Cl)cc2c1-c1ccnc(N)n1` gave a pIC50 in test [1] of 6.52.

As for `Nc1nccc(-c2c[nH]c3ccc(Cl)cc23)n1`, the pIC50 in test [1] was 6.82.

Molecule `Nc1nccc(-n2ccc3ccc(Cl)cc32)n1` showed a negative-log IC50 (pIC50) in test [1] of 7.12.

The molecule `Nc1nccc(-n2ccc3ccc(Br)cc32)n1` gave a pIC50 in test [1] of 7.05.

`N#Cc1ccc2ccn(-c3ccnc(N)n3)c2c1` had a negative-log IC50 (pIC50) in test [1] of 7.20.

Consider `Nc1nccc(N2CCc3ccc(Br)cc32)n1`, for which the pIC50 in test [1] was 6.26.

Molecule `Nc1nccc(-c2c[nH]c3ccc(F)cc23)n1` showed a pIC50 in test [1] of 5.74.

For the molecule `COc1ccc2[nH]cc(-c3ccnc(N)n3)c2c1`, the negative-log IC50 (pIC50) in test [1] is 4.62.

With `N#Cc1ccc2[nH]cc(-c3ccnc(N)n3)c2c1`, in test [1], the pIC50 is 7.20.

In turn, `Cc1ccc2nc(C)c(-c3ccnc(N)n3)n2c1` showed a pIC50 in test [1] of 4.38.

`Nc1nccc(-c2c[nH]c3ccccc23)n1`: the pIC50 in test [1] is 4.39.
